Entries after “also recorded” stand apart in the source; their conditions may differ.
How the values were obtained:
[1] = target: T1, AR W741L (Homo sapiens, UniProt P10275, W742L); test: Transcription assay (ARE-luciferase reporter) in CV-1 cells, AR W741L; assay type: cell-based; conditions: for Antagonist efficacy (RLU value at IC50), AR W741L: in competition with 250 nM DHT
T1 construct: expressed in transfected cells; host or cells: CV-1
T1 sequence (P10275 1-920 W742L): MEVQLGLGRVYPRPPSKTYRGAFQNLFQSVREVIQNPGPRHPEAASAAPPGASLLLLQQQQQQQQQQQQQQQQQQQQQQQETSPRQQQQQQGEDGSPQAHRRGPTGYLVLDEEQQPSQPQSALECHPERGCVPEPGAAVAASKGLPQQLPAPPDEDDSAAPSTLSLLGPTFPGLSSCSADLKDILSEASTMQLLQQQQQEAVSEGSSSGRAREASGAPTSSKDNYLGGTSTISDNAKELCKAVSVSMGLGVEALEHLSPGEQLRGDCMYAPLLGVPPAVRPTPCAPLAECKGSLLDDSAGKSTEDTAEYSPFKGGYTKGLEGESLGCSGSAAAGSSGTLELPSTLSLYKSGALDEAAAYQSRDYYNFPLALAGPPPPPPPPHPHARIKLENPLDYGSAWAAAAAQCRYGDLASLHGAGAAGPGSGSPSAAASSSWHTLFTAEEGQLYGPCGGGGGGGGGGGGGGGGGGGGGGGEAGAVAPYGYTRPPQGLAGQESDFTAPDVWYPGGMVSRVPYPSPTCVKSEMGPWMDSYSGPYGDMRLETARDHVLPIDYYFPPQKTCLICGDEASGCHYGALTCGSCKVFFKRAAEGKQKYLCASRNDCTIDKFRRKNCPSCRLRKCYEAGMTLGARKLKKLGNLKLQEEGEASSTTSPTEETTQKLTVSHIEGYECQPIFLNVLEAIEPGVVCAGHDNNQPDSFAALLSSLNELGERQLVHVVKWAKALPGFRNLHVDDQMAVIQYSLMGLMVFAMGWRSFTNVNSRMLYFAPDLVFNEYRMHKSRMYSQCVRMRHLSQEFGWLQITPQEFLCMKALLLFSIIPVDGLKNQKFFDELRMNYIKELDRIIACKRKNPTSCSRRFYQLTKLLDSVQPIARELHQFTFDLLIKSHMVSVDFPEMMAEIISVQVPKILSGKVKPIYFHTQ
Method: Twenty-four hours prior to transfection, CV-1 cells were seeded at a density of 45,000 cells per well in 24-well cell culture plates and grown in phenol red free Dulbecco's Modified Eagle Medium (DMEM) supplemented with 10% cosmic calf serum (COS). ARE-luciferase reporter and Renilla-Luc as the internal standard and a prokaryotic expression vector encoding the wild-type androgen receptor or mutant androgen receptor were transfected with Lipofectamine (Invitrogen) following manufacturer's protocol. Five hours after transfection, media was added containing the appropriate concentrations of ligands. The cells were allowed to incubate for 38 hours before harvesting by passive lysis buffer. Cell extracts were immediately assayed using the Dual Luciferase Assay (Promega) with a Perkin-Elmer Microbeta Luminometer. […] Dose-response data was analyzed by nonlinear regression analysis using GraphPad Prism.

[2] = test system: LNCaP cells; test: LIVE/DEAD cytotoxicity assay; assay type: cell-based; conditions: 1 μM, nine days, RPMI + 10% DCC-FBS
Method: FIG. 1. […] The pictures were taken after nine days of incubation in RPMI supplemented with 10% DCC-FBS plus indicated antiandrogens. B and C. Quantitative analysis of images.
Media was changed every 3 days and floating cells were centrifuged down and reseeded into dish. LIVE/DEAD reagent was added after 9 days culturing. Live cells (indicated by green fluorescence) were counted and compared to the number of dead cells (red).

[3] = test system: LNCaP cells; test: Clonogenic assay / in vitro selection for antiandrogen resistance; assay type: cell-based; conditions: RPMI + 10% DCC-FBS
Method: Clonogenic assays are performed by a modification of the procedure described by Nara et al. (Cancer Research 2003, 63, 149-153). […] Media was changed every three days was and documented weekly. If cells reach 95% confluence, the cells were counted and reseeded at a density of 80,000 cell per well.

[4] = target: T2, AR ligand-binding domain (LBD) (Homo sapiens, UniProt P10275); test: Coactivator peptide recruitment by TR-FRET; assay type: biochemical; conditions: read after 2 h and 4 h incubation
T2 construct: purchased Invitrogen PV8431
T2 sequence (P10275 669-900 limits assumed): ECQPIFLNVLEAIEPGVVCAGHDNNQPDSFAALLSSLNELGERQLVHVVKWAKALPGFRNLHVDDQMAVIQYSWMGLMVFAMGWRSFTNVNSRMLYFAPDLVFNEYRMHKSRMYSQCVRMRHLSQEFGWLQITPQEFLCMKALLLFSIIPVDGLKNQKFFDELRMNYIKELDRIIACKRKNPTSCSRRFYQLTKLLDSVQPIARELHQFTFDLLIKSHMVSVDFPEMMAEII
Method: Briefly, serial dilutions of ligand stocks solutions (in DMSO) were made in TR-FRET coregulator buffer A in a 384 well plate. To each well was added a 4×-stock solution of the AR-LBD followed by a 4× stock solution of fluorescein D-11 peptide and lanthanide-labeled antiGST antibody. The plates were read by time resolved fluorescence after 2 h and 4 h incubation.

[5] = test system: mouse prostates; test: Prostate apoptosis by TUNEL after IP PAN52; assay type: in vivo, Male C57Bl/6 mice; conditions: 25 mg/kg/day IP, day 3 and day 5, TUNEL
Method: FIG. 17. Quantification of apoptotic cells from prostate tissues where mice were treated short-term by intraperitoneal (IP) injection with PAN52 at 25 mg/kg/day versus vehicle control for either 3 days or 5 days (right). Single 20× magnification fields from each of four lobes of mouse prostate glands were counted in each mouse.

SMILES | IC50 [1] [µM] | Antagonist efficacy (RLU value at IC50), AR W741L [1] | Viable cells (green) in fluorescence images [2] | Ability to evade resistance in in vitro selections (resistant LNCaP clones) [3] | Coactivator peptide (D11, FXXLF) association with AR(LBD) [4] | Apoptosis in prostate compared to control [5]
CN(C)CCCOc1cccc(Cc2ccccc2S(=O)(=O)CC(C)(O)C(=O)Nc2ccc(C#N)c(C(F)(F)F)c2)c1 (stereo not drawn) [PAN22] | 3 ± 1.8 | (52% ± 4.9%) | – | – | – | –
CC(O)(CS(=O)(=O)c1ccccc1-c1ccccc1O)C(=O)Nc1ccc(C#N)c(C(F)(F)F)c1 (stereo not drawn) [PAN41, N-(4-cyano-3-(trifluoromethyl)phenyl)-2-hydroxy-3-(2′-hydroxybiphenyl-2-ylsulfonyl)-2-methylpropanamide] | 5.8 ± 1.6 | (50% ± 1.0%) | – | – | – | –
CN(C)CCCOc1cccc(-c2ccccc2S(=O)(=O)CC(C)(O)C(=O)Nc2ccc(C#N)c(C(F)(F)F)c2)c1 (stereo not drawn) [PAN52] | 12.2 ± 6.2 | (53% ± 5.2%) | almost all cells | evade resistance | do not show coactivator association | increase in apoptosis; also recorded: induced rapid apoptosis
CN(C)CCCOc1ccc(-c2ccccc2S(=O)(=O)CC(C)(O)C(=O)Nc2ccc(C#N)c(C(F)(F)F)c2)cc1 (stereo not drawn) [PAN62] | 11 ± 11 | (62% ± 12%) | – | – | – | –

Reference: patent US8450374B2, “Pan-antagonists for the androgen receptor and androgen receptor mutants associated with anti-androgen withdrawal” (priority 2009, dated 2013)
